Experimental data: the supplement of paper PMC13380429

Legend:
Details in all cases: 72 h
HepG2 [1] = assay: cell viability relative to DMSO; higher = less toxic
Calu-3 [2] = assay: as above
Vero E6 [3] = assay: as above
U2OS [4] = assay: as above
Caco-2 [5] = assay: as above
HepG2 [6] = assay: relative viability EC50 (midpoint between 100% and the lowest measured viability); higher = less toxic
Calu-3 [7] = assay: as above
Vero E6 [8] = assay: as above
U2OS [9] = assay: as above
Caco-2 [10] = assay: as above
HepG2 [11] = assay: drug sensitivity score (DSS) for viability; higher = more toxic; extreme values may be limits of the assay
Calu-3 [12] = assay: as above
Vero E6 [13] = assay: as above
U2OS [14] = assay: as above
Caco-2 [15] = assay: as above

Structure (SMILES)	cell viability (HepG2 [1]; 1 nM) [%]	cell viability (HepG2 [1]; 10 nM) [%]	cell viability (HepG2 [1]; 100 nM) [%]	cell viability (HepG2 [1]; 1000 nM) [%]	cell viability (HepG2 [1]; 10000 nM) [%]	cell viability (Calu-3 [2]; 1 nM) [%]	cell viability (Calu-3 [2]; 10 nM) [%]	cell viability (Calu-3 [2]; 100 nM) [%]	cell viability (Calu-3 [2]; 1000 nM) [%]	cell viability (Calu-3 [2]; 10000 nM) [%]	cell viability (Vero E6 [3]; 1 nM) [%]	cell viability (Vero E6 [3]; 10 nM) [%]	cell viability (Vero E6 [3]; 100 nM) [%]	cell viability (Vero E6 [3]; 1000 nM) [%]	cell viability (Vero E6 [3]; 10000 nM) [%]	cell viability (U2OS [4]; 1 nM) [%]	cell viability (U2OS [4]; 10 nM) [%]	cell viability (U2OS [4]; 100 nM) [%]	cell viability (U2OS [4]; 1000 nM) [%]	cell viability (U2OS [4]; 10000 nM) [%]	cell viability (Caco-2 [5]; 1 nM) [%]	cell viability (Caco-2 [5]; 10 nM) [%]	cell viability (Caco-2 [5]; 100 nM) [%]	cell viability (Caco-2 [5]; 1000 nM) [%]	cell viability (Caco-2 [5]; 10000 nM) [%]	relative viability EC50 (HepG2 [6]) [µM]	relative viability EC50 (Calu-3 [7]) [µM]	relative viability EC50 (Vero E6 [8]) [µM]	relative viability EC50 (U2OS [9]) [µM]	relative viability EC50 (Caco-2 [10]) [µM]	drug sensitivity score (HepG2 [11])	drug sensitivity score (Calu-3 [12])	drug sensitivity score (Vero E6 [13])	drug sensitivity score (U2OS [14])	drug sensitivity score (Caco-2 [15])
C(=C\c1ccccc1)/CN1CCN(CCOC(c2ccccc2)c2ccccc2)CC1	92.7	97.3	91.3	90.4	95.4	113	99.3	98.5	92	98.8	98	97	95.8	91.7	91.6	99.1	95.5	95.8	103	100	102	87.5	101	99.1	80.5	> 10	> 10	> 10	> 10	> 10	0	0	0	0	0.6
CC(C)c1cc(C(=O)N2Cc3ccc(CN4CCN(C)CC4)cc3C2)c(O)cc1O	108	103	28.4	1.5	1.2	101	96.4	77.8	41.7	38.9	104	104	101	40.4	30.7	101	102	85.3	8.1	3.4	98.5	94.8	85.8	40	39.1	0.068	0.145	0.492	0.232	0.174	26	13.3	11	18.8	13.1
CN(C)CCOc1ccc(-c2nc(-c3ccncc3)c(-c3ccc4c(c3)CC/C4=N\O)[nH]2)cc1	110	102	96.8	39.8	3.5	99.6	94.5	114	115	117	102	98.5	105	112	113	93	108	99.6	116	114	106	103	99.1	101	98.6	0.748	> 10	> 10	> 10	> 10	12.6	0	0	0	0
CNC(=O)c1nn(C)c2c1C(C)(C)Cc1cnc(Nc3ccc(N4CCN(C)CC4)cc3)nc1-2	89.9	102	75.7	37.7	16.5	95.1	100	89	67.9	22.1	91.9	96.1	85	31.2	6.4	99.7	93.6	97.3	47.4	3.6	98.1	92.2	90.3	53	28.9	0.288	1.2	0.409	0.898	0.518	14.5	7.9	14.8	11.6	10.2
COc1cc2c(cc1C(F)(F)F)N(C(=O)Nc1cc(F)cc(-c3cccnc3)c1)CC2	99.5	90.9	103	96.4	113	102	91.7	92.9	101	93.9	96.9	96.1	99.4	99.9	95.1	100	105	97.4	103	95.9	96.8	104	89.8	99	98.6	> 10	> 10	> 10	> 10	> 10	0	0	0	0	0
Nc1ncnc2c1c(COc1cccc(Cl)c1)nn2C1CCOCC1	91.3	89.1	109	91.8	99.4	95.4	104	95.3	97.2	84.2	96.5	96.5	97.6	89.3	112	92.5	98.1	94.9	96.9	96.4	89.2	99.2	99.7	100	91.3	> 10	> 10	> 10	> 10	> 10	0	0.6	0	0	0
O=C(NO)c1cnc(N2CCN(S(=O)(=O)c3ccc4ccccc4c3)CC2)nc1	107	96.8	91.5	65.6	11.7	107	103	98.9	75.5	24.1	102	97.5	100	79.2	-0.1	97.9	98.4	94.5	69.3	4.2	104	128	84.7	51.8	4.3	1.29	1.34	1.71	1.4	0.894	8.9	7.7	8.8	9.4	11.2
O=C(Nc1c(-c2cccs2)nc2ccccn12)c1ccc(Cl)cc1	98.9	95.3	99	101	91.4	106	104	103	86.9	107	96.7	103	96.6	95.1	92.9	104	96.7	103	99.3	103	99	95	104	97.5	102	> 10	> 10	> 10	> 10	> 10	0	0	0	0	0
O=C(O)[C@H](Cc1ccccc1)NCc1ccc(Cl)cc1	95.6	101	97.1	93.3	103	92.8	91.5	93.8	98	92.5	99.8	102	92.9	99.4	101	95.2	98.7	91	98.3	94.5	107	99.6	106	101	102	> 10	> 10	> 10	> 10	> 10	0	0	0	0	0
O=C(O)c1ccc2c(c1)C(=O)N(c1cccc(Oc3ccc([N+](=O)[O-])cc3)c1)C2=O	104	94.8	95.5	92.9	103	94.8	96.5	104	96.8	99	94.1	99.7	98.7	90.1	100	95.5	99	94.6	99	94.3	92.5	102	98	94.7	100	> 10	> 10	> 10	> 10	> 10	0	0	0	0	0
O=C(c1c2ccccc2cc2ccccc12)N1CCC(N2CCC[C@@H](C(=O)N3CCOCC3)C2)CC1	93.7	93.2	96.9	85.3	82.3	100	99.8	105	113	117	97.9	93.4	93.8	89.7	99.8	92.7	98.9	102	103	101	84.6	100	87.3	94.3	87.2	> 10	> 10	> 10	> 10	> 10	1.1	0	0	0	0
Oc1ccc(-c2nc3cc(O)cc(Br)c3o2)cc1	107	102	104	102	95.3	110	99.1	93.8	96.9	89.1	110	95.6	110	101	98.9	99.1	105	96.9	109	100	100	112	102	98.3	92.1	> 10	> 10	> 10	> 10	> 10	0	0	0	0	0
O=C(O)CC/C=C\C[C@@H]1CO[C@H](c2ccccc2Cl)O[C@@H]1c1ccccc1O (racemic)	88.5	103	106	108	110	93.8	96.1	102	99	98.9	93.1	96.3	92.6	102	106	96.6	95	97.4	95.5	99.2	91.4	90.3	105	96.9	92.6	> 10	> 10	> 10	> 10	> 10	0	0	0	0	0
CNCC(O)c1ccc(O)c(O)c1 (racemic) [DL-Adrenaline]	105	90.8	110	99.4	113	99.8	98.3	92.4	92.7	105	95.3	93.2	96.6	93.8	104	98.7	99.6	89	99.9	103	94.8	97.8	90.1	93.7	95.7	> 10	> 10	> 10	> 10	> 10	0	0	0	0	0
